Laboratory results: PMC5384001 (Scientific Reports, 2017)

Legend:
GluN1 LBD = target: GluN1 LBD; set-up: method as in PMID 12805203; conditions: cited from earlier work
GluD2-(H)GluN1 = target: T1, GluD2-(H)GluN1 (Rattus norvegicus, UniProt Q63226, A766F/D542Y/D767R/N763E/R768S/S544G/T764L/V761T/V765F/Y543Q); assay: Two-electrode voltage clamp in Xenopus oocytes, current response; type: cell-based
T1 construct: have an effect on the function of full-length receptors as well; expressed in transfected cells; host or cells: Xenopus laevis oocytes injected with cRNA
T1 sequence (Q63226 24-1007 D542Y/Y543Q/S544G/V761T/N763E/T764L/V765F/A766F/D767R/R768S): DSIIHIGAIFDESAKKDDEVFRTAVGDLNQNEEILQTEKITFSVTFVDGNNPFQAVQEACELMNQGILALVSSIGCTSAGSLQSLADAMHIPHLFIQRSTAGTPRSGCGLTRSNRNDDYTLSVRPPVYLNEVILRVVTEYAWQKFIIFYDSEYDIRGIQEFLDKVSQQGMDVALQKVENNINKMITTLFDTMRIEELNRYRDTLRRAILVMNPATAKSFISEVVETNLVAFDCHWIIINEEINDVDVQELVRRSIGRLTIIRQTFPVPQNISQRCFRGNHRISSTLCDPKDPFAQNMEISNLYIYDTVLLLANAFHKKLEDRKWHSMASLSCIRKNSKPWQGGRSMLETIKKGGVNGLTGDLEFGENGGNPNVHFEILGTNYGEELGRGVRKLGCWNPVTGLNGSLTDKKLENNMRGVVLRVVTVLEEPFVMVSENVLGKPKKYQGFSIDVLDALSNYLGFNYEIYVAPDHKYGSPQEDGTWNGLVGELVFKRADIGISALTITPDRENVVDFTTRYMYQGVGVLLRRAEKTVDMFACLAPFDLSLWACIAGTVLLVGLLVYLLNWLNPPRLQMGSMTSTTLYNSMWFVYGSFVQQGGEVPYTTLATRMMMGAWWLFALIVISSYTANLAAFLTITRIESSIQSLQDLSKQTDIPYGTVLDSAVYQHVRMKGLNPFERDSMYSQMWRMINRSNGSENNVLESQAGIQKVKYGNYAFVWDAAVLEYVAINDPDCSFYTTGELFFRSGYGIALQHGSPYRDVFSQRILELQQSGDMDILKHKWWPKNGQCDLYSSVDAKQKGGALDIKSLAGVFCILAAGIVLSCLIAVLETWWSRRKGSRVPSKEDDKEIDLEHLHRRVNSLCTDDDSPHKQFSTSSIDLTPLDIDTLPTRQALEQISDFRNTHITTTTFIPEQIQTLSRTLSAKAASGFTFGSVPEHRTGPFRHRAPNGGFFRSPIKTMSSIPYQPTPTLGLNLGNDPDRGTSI
Method: (§1) Oocytes were obtained by surgically removing parts of the ovaries from Xenopus laevis (Nasco, Fort Atkinson, WI, USA) anaesthetised with 1.5 g/L 3-aminobenzoic acid ethylester (Sigma, Taufkirchen, Germany). The ovary clippings were digested with 784 U/mL (4 mg/mL) collagenase type I (Worthington, Lakewood, NJ, USA) in Ca^2+-free Barth’s solution (88 mM NaCl, 1.1 mM KCl, 2.4 mM NaHCO3, 0.8 mM MgSO4, 15 mM HEPES-NaOH, pH 7.6) with gentle agitation for 1.5–2 h at 20 °C to remove the follicular cell layer. After stopping the collagenase digestion by washing with Barth’s solution (88 mM NaCl, 1.1 mM KCl, 2.4 mM NaHCO3, 0.3 mM Ca(NO3)2, 0.4 mM CaCl2, 0.8 mM MgSO4, 15 mM HEPES-NaOH, pH 7.6), defolliculated oocytes of stages V and VI were selected and maintained at 16 °C in Barth’s solution supplemented with 100 μg/mL gentamicin, 40 μg/mL streptomycin, and 63 μg/mL penicillin. Oocytes were injected with 11 ng cRNA (10 ng of each cRNA for co-expression of GluN1 and GluN2A) using a nanoliter injector (WPI, Sarasota, FL, USA). Four days after cRNA injection, current responses were recorded under voltage clamp at –70 mV with a Turbo Tec-10CD amplifier (npi electronic, Tamm, Germany) controlled by Patchmaster software (HEKA, Lambrecht, Germany). Currents were filtered with a 20 Hz low-pass filter and then digitised with a sampling rate of 50 Hz. Recording electrodes were pulled from borosilicate glass (Hilgenberg, Malsfeld, Germany) with an L/M-3P-A vertical pipette puller (List-Medical), filled with 3 M KCl, and had resistances of 0.5–5 MΩ (voltage electrode) or 0.5–1.5 MΩ (current electrode). Recordings were performed in a 50 μL chamber under constant superfusion with extracellular solution at a flow rate of 3–5 mL/min. […] Finally, Ba-NFR and then NMDGR were applied again to check for reversibility.

[1] = target: T2, GluN1-1a-(H)GluD2 with GluN2A (Rattus norvegicus, UniProt P35439, E751N/F753V/F754A/G537S/L752T/Q536Y/R755D/S756R/T749V/Y535D); assay: as above; type: cell-based; conditions: 100 μM glutamate plus 1 mM D-serine, n = 23
T2 construct: expressed in transfected cells; host or cells: Xenopus laevis oocytes injected with cRNA
Method: as §1

## N[C@H](CO)C(=O)O [D-serine]
GluN1 LBD
  Kd: 7 µM
GluD2-(H)GluN1; 10 μM D-serine, n = 14
  current response: 1.1 ± 0.6 nA
GluD2-(H)GluN1; 1 mM D-serine, n = 22
  current response: 2.3 ± 0.4 nA
[1]
  current response: 5.8 ± 1.0 nA
